Publication PMC10745968 (Molecules, 2023)

Legend:
Pseudomonas aeruginosa = type: cell-based
Bacillus cereus = type: cell-based
Bacillus subtilis = type: cell-based
Salmonella typhi = type: cell-based
Staphylococcus aureus = type: cell-based
Escherichia coli = type: cell-based
brine shrimp nauplii = conditions: in vivo
Aspergillus flavus = type: cell-based; conditions: 5 days
Aspergillus niger = type: cell-based; conditions: 5 days

| SMILES | Diameter of Inhibition Zone (Pseudomonas aeruginosa) | Diameter of Inhibition Zone (Bacillus cereus) | Diameter of Inhibition Zone (Bacillus subtilis) | Diameter of Inhibition Zone (Salmonella typhi) | Diameter of Inhibition Zone (Staphylococcus aureus) | Diameter of Inhibition Zone (Escherichia coli) | death rate (brine shrimp) (brine shrimp nauplii) | % Inhibition of Fungal Mycelial Growth in mm (20 μg/μL) (Aspergillus flavus) | % Inhibition of Fungal Mycelial Growth in mm (20 μg/μL) (Aspergillus niger) |
| --- | --- | --- | --- | --- | --- | --- | --- | --- | --- |
| CC[C@H]1OC(=O)[C@H](C)[C@@H](O[C@H]2C[C@@](C)(OC)[C@@H](O)[C@H](C)O2)[C@H](C)[C@@H](O[C@@H]2O[C@H](C)C[C@H](N(C)C)[C@H]2O)[C@](C)(O)C[C@@H](C)CN(C)[C@H](C)[C@@H](O)[C@]1(C)O [Azithromycin, reference compound] | ** 18.5 ± 0.3 mm | ** 17.22 ± 0.3 mm | ** 18.5 ± 0.3 mm | ** 18.0 ± 0.2 mm | ** 17.75 ± 0.3 mm | ** 17.25 ± 0.1 mm | – | – | – |
| CO[C@H]1O[C@H](COC(=O)C=Cc2ccccc2)[C@@H](O)[C@H](O)[C@@H]1O [Compound 2, Methyl 6-O-cinnamoyl-α-D-mannopyranoside] | – | 07.11 ± 0.5 mm | – | 12.41 ± 0.3 mm | 11.75 ± 0.3 mm | – | 27.07% | – | – |
| CCCCCCC(=O)O[C@@H]1[C@H](OC(=O)CCCCCC)[C@@H](OC)O[C@H](COC(=O)C=Cc2ccccc2)[C@H]1OC(=O)CCCCCC [Compound 3, Methyl 2,3,4-tri-O-heptanoyl-6-O-cinnamoyl-α-D-mannopyranoside] | – | – | – | – | – | 10.25 ± 0.2 mm | – | – | – |
| CCCCCCCC(=O)O[C@@H]1[C@H](OC(=O)CCCCCCC)[C@@H](OC)O[C@H](COC(=O)C=Cc2ccccc2)[C@H]1OC(=O)CCCCCCC [Compound 4, Methyl 6-O-cinnamoyl-2,3,4-tri-O-octanoyl-α-D-mannopyranoside] | 09.19 ± 0.6 mm | – | 10.51 ± 0.6 mm | 10.23 ± 0.5 mm | – | 11.53 ± 0.2 mm | 36.10-37.03% | * 98.47 ± 1.0% | * 96.22 ± 1.1% |
| CO[C@H]1O[C@H](COC(=O)/C=C/c2ccccc2)[C@@H](OS(=O)(=O)c2ccc(C)cc2)[C@H](OS(=O)(=O)c2ccc(C)cc2)[C@@H]1OS(=O)(=O)c1ccc(C)cc1 [Compound 5, Methyl 2,3,4-tri-O-p-toluenesulfonyl-6-O-cinnamoyl-α-D-mannopyranoside] | 12.36 ± 0.2 mm | 08.10 ± 0.3 mm | 12.15 ± 0.7 mm | – | – | 9.00 ± 0.2 mm | – | * 81.30 ± 1.0% | 57.62 ± 1.1% |
| CO[C@H]1O[C@H](COC(=O)C=Cc2ccccc2)[C@@H](OS(=O)(=O)c2ccccc2)[C@H](OS(=O)(=O)c2ccccc2)[C@@H]1OS(=O)(=O)c1ccccc1 [Compound 6, Methyl 6-O-cinnamoyl-2,3,4-tri-O-benzenesulfonyl-α-D-mannopyranoside] | 8.50 ± 0.2 mm | – | 10.13 ± 0.8 mm | 9.17 ± 0.1 mm | – | 9.00 ± 0.3 mm | 36.10-37.03% | – | – |
| C[C@@H]1[C@H](O)[C@@H](C)/C=C/C=C/CC/C=C/C=C/C=C/C=C/C(O[C@H]2O[C@H](C)[C@@H](O)[C@H](N)[C@@H]2O)CC2O[C@](O)(CC(O)C(O)CCC(O)CC(O)CC(O)CC(=O)O[C@H]1C)CC(O)C2C(=O)O (stereo partly shown) [Nystatin, nystatin, reference compound] | – | – | – | – | – | – | – | ** 64.1 ± 1.0% | ** 65.4 ± 1.0% |
